Measured values published in a melting point compilation (Tetko et al.).

Row | SMILES | melting point
1 | Cc1nnc(NC(=O)CCl)s1 | 230 to 232 °C
2 | Clc1cc(-n2cccn2)ccn1 | 111 to 113 °C
3 | NC(=O)N1CCCC1 | 222 to 224 °C
4 | Cc1cc(C)c2c(-c3ccccc3)nc(S)n2n1 | 328 to 330 °C
5 | O=C(O)CCC(=O)NCC(=O)c1ccccc1Cl | 151 to 153 °C
6 | O=C(O)C1(c2cccc(Br)c2)CCOCC1 | 152 to 154 °C
7 | NNS(=O)(=O)c1ccc(Br)cc1 | 225 to 227 °C
8 | Clc1ccc(-n2cccn2)cn1 | 107 to 109 °C
9 | N#Cc1ccc(Cl)c(N)c1 | 87 to 91 °C
10 | Cc1ncsc1-c1nc(CCl)no1 | 82 to 84 °C
11 | O=C(O)CCCC(=O)Nc1cccnc1N1CCCC1 | 142 to 144 °C
12 | Cc1c([N+](=O)[O-])cc(C(=O)O)cc1S(=O)(=O)Cl | 176 to 178 °C
13 | Nc1nc(-c2ccc(Oc3ccccc3)cc2)cs1 | 195 to 197 °C
14 | O=C(O)c1cc([N+](=O)[O-])cnc1Br | 135 to 137 °C
15 | COC(=O)c1cccc(C(N)=NO)c1 | 102 to 104 °C
16 | O=C(O)C=Cc1cc(Cl)ccc1OCc1ccc(F)cc1 | 166 to 168 °C
17 | Nc1nc(-c2cccc(Cl)c2)cs1 | 125 to 127 °C
18 | CC(C)c1ccc(C(N)=S)cc1 | 148 to 150 °C
19 | COc1ccc(Cn2nccc2N)cc1OC | < 17 °C
20 | CCCn1c(C)c(C(=O)O)c2cc(OC)ccc21 | 171 to 173 °C

Row | SMILES | melting point
21 | CNC(CCO)c1ccccc1 (stereo unspecified) | 56 to 58 °C
22 | COc1ccc(CC(N)=O)cc1F | 173 to 175 °C
23 | N#Cc1cnoc1N | 143 to 145 °C
24 | COc1ccc(Oc2ccc(C=O)cc2[N+](=O)[O-])cc1 | 67 to 69 °C
25 | CC1CCc2[nH]c3ccc(C(=O)O)cc3c2C1 (stereo unspecified) | 218 to 220 °C
26 | Nc1ccc(C(=O)NCC(F)(F)F)cc1 | 157 to 159 °C
27 | O=C(O)c1cc(S)ccc1[N+](=O)[O-] | 234 to 236 °C
28 | CC(=Cc1cccc(Cl)c1)C(=O)O | 99 to 101 °C
29 | CCS(=O)(=O)c1ccc2oc(S)nc2c1 | 188 to 190 °C
30 | CC(=O)c1csc(C(=O)CCl)c1 | 124 to 126 °C
31 | NC1CN(S(=O)(=O)c2ccc3c(c2)OCCO3)C1 | 124 to 126 °C
32 | NC(=O)c1cc(F)ccc1Br | 152 to 154 °C
33 | COc1ccccc1NC(=O)CCCCC(=O)O | 82 to 84 °C
34 | O=C(O)C(Oc1cccc(F)c1)c1ccccc1 (stereo unspecified) | 108 to 110 °C
35 | CCOC(=O)c1cnc2ccccc2c1Cl | 37 to 39 °C
36 | C=CCN=c1nn[nH]n1C | 66 to 68 °C
37 | S=C=Nc1cccnc1Cl | 35 to 37 °C
38 | COc1cc(OC)cc(N2CC(C(=O)O)CC2=O)c1 (stereo unspecified) | 125 to 127 °C
39 | O=C1Nc2ccc(S(=O)(=O)Cl)cc2C1(Cl)Cl | 134 to 136 °C
40 | O=C(CCl)N(Cc1nnc(-c2ccc(Cl)cc2)o1)C1CC1 | 102 to 104 °C

Row | SMILES | melting point
41 | O=C(Nc1ccc(-c2ccccc2)cc1)OCC(F)(F)F | 168 to 170 °C
42 | Nc1ccc(S(=O)(=O)Nc2ccccc2Cl)cc1N | 203 to 205 °C
43 | O=C(CCl)Nc1ccncc1 | 295 to 297 °C
44 | Cc1nccc(N)c1Cl | 110 to 112 °C
45 | O=Cc1cc(Cl)c2c(c1)OCCCO2 | 78 to 82 °C
46 | CN1CCC(Oc2ccc(C(=O)O)cc2)CC1 | 218 to 220 °C
47 | CC1(c2ccc(F)cc2Cl)NC(=O)NC1=O (stereo unspecified) | 214 to 216 °C
48 | CN1CCN(c2ccc(CN)cn2)CC1 | 60 to 62 °C
49 | CN(C(=O)c1ccccc1N)C1CCCCC1 | 141 to 143 °C
50 | NNC(=O)N1CCSCC1 | 129 to 131 °C
51 | O=C(O)CCCn1nnc(-c2ccccc2)n1 | 83 to 85 °C
52 | Cc1ccnc(Oc2ccc(N)cc2)n1 | 119 to 121 °C
53 | Cc1ccc(F)cc1S(=O)(=O)Nc1cccc(C(=O)O)c1 | 215 to 217 °C
54 | O=C(O)CC(C(=O)O)c1ccccc1F (stereo unspecified) | 169 to 171 °C
55 | O=C(CCl)N1CCOC1=O | 53 to 55 °C
56 | O=[N+]([O-])c1ccc(Br)c2c1CNCC2 | 81 to 83 °C
57 | CC1(c2ccc(Br)s2)NC(=O)NC1=O (stereo unspecified) | 184 to 186 °C
58 | COc1ccc(Cl)cc1-c1cc(N)[nH]n1 | 126 to 128 °C
59 | CN1CCN(CCNCc2ccc(Br)cc2F)CC1 | 45 to 47 °C
60 | Cn1cc(N2CCC(Br)C2=O)cn1 (stereo unspecified) | 136 to 138 °C

Now from value to molecule:

Row | melting point | SMILES
61 | 271 to 273 °C | O=C1OCCc2cnc3ncnn3c21
62 | 207 to 209 °C | O=C(O)CSc1nncn1-c1ccccc1
63 | 259 to 261 °C | Cc1cnc2c(c1)NC(=O)CO2
64 | 97 to 99 °C | N#CC1(N2CCN(C(=O)CCl)CC2)CCCCC1
65 | 207 to 209 °C | O=C(O)c1cc(Br)cc(Cl)c1O
66 | 193 to 195 °C | N#Cc1ccc(C(=O)NCC(=O)O)cc1
67 | 70 to 72 °C | Nc1ncc(Cc2ccc(Cl)c(C(F)(F)F)c2)s1
68 | 173 to 175 °C | O=C(O)C1CC(=O)N(c2ccc(Br)cc2)C1 (stereo unspecified)
69 | 137 to 139 °C | O=C(Nc1ccc(Cl)cn1)C1CCNCC1
70 | 69 to 71 °C | CC(Cl)c1cn(-c2ccccc2)nn1 (stereo unspecified)
71 | 178 to 180 °C | NC(=O)NCCCCC(=O)O
72 | 139 to 141 °C | Cc1ccccc1-c1cc(N)n(Cc2ccccc2)n1
73 | 45 to 47 °C | O=C(NCc1cccnc1)OCC(F)(F)F
74 | 245 to 247 °C | N#Cc1cc(C(N)=O)c[nH]1
75 | 76 to 80 °C | O=C1CSC(N2CCCCC2)=N1
76 | 121 to 123 °C | Cn1cc(C=O)c(=O)n(C)c1=O
77 | 105 to 107 °C | Nc1ncc(Cc2cccc(Br)c2)s1
78 | 91 to 93 °C | O=C(O)CSCC(=O)N1CCCCC1
79 | 254 to 256 °C | CC(C)n1ccc(=O)nc1S
80 | 184 to 186 °C | Cc1ccc(-n2nnc(C(=O)O)c2C)cc1
81 | 114 to 116 °C | CCN(CCO)c1ccc(NS(=O)(=O)c2ccc(N)cc2)cc1
82 | 140 to 142 °C | Nc1cc(Cl)c(Cl)cn1

Row | melting point | SMILES
83 | 75 to 77 °C | COC(=O)NCCC(=O)O
84 | 124 to 126 °C | O=C(O)Cc1csc(-c2cccc(F)c2)n1
85 | 166 to 168 °C | CC(C)(C)OC(=O)N1CCCC(n2cc(C(=O)O)cn2)C1 (stereo unspecified)
86 | 72 to 74 °C | CCOC(=O)c1cnc2c(C)cc(C)cc2c1Cl
87 | 106 to 108 °C | O=C1C=CC(=O)N1CCc1ccccc1F
88 | 214 to 216 °C | O=C(O)c1csc(-c2ccc(O)cc2)n1
89 | 187 to 189 °C | CC(C)C(NC(=O)c1ccncc1)C(=O)O (stereo unspecified)
90 | 216 to 220 °C | Cn1[nH]c(=O)nc1S
91 | 174 to 176 °C | O=C(O)C=Cc1cscn1
92 | 100 to 102 °C | Clc1cc2ccccc2c(Cl)n1
93 | 76 to 78 °C | O=[N+]([O-])c1cnc(Br)c(Br)c1
94 | 84 to 86 °C | COc1nc(C)ccc1C#N
95 | 47 to 49 °C | Nc1ccccc1S(=O)(=O)C(F)(F)F
96 | 214 to 216 °C | Cn1ccc(C(=O)NCCC(=O)O)cc1=O
97 | 232 to 234 °C | COc1ccc(C(=O)O)nc1Br
98 | 124 to 126 °C | Cc1cc(-c2noc(CCC(=O)O)n2)ccc1F
99 | 199 to 201 °C | Cc1cc2ccccc2c(=O)[nH]1
100 | 86 to 88 °C | Nc1cc(Cl)cc(Br)c1OC(F)F
101 | 170 to 172 °C | CNS(=O)(=O)c1csc(C(=O)O)c1
102 | 131 to 133 °C | CC(C)N1N=C(C(=O)O)CCC1=O
103 | 86 to 88 °C | COc1cc(Br)cc([N+](=O)[O-])c1
104 | 94 to 96 °C | CNC(=O)COc1cccc(Br)c1

Row | melting point | SMILES
105 | 212 to 214 °C | O=c1c([N+](=O)[O-])c(Cl)nc2ccccn12
106 | 138 to 140 °C | ClCc1cn(-c2ccc(Cl)c(Cl)c2)nn1
107 | 170 to 172 °C | O=C(O)C1CCN(S(=O)(=O)c2ccc3c(c2)CCC3)CC1
108 | 185 to 187 °C | CC(=O)Nc1cccc(N2C(=O)C=CC2=O)c1
109 | 43 to 45 °C | O=C(c1cccnc1)C1CCOCC1
110 | 117 to 119 °C | CCOC(=O)C(O)(CC#N)c1nccn1C (stereo unspecified)
111 | 268 to 270 °C | NC1(C(=O)O)CCOCC1
112 | 239 to 241 °C | O=C(O)CCNC(=O)c1ccncc1
113 | 95 to 97 °C | O=S(=O)(Cl)c1ccc(OCc2ccccc2)cc1
114 | 74 to 76 °C | Cc1cccc(CSCC(=O)O)c1
115 | 87 to 89 °C | COc1ccc(C)nc1N
116 | 178 to 180 °C | NC(=S)NC1CCOc2ccccc21 (stereo unspecified)
117 | 178 to 180 °C | O=C(NNc1ccccc1)Nc1ccccc1
118 | 151 to 153 °C | NC(=O)C1CCC1
119 | 113 to 115 °C | COc1ccccc1CNC(=O)C(C)Cl (stereo unspecified)
120 | 191 to 193 °C | NNC(=O)c1cccc(S(=O)(=O)Nc2ccc(Cl)cc2)c1
121 | 87 to 89 °C | ClCc1nnc(-c2ccc(Cl)cc2Cl)o1
122 | 179 to 181 °C | Cc1sc(N)c(C(N)=O)c1C
123 | 121 to 123 °C | CCS(=O)(=O)NCCc1ccc(S(N)(=O)=O)s1
124 | 113 to 115 °C | O=Cc1ccc(F)c2cccnc12
125 | 118 to 120 °C | O=C(CCl)Nc1cc(F)ccc1F
126 | 307 to 309 °C | O=C(O)c1cnc(-c2ccncc2)s1

Row | melting point | SMILES
127 | 149 to 151 °C | Nc1nnc(CCCc2cccs2)o1
128 | 106 to 108 °C | CN(CC(=O)O)c1ccc(C(F)(F)F)cc1C=O
129 | 149 to 151 °C | Brc1cnc2c(c1)NCCO2
130 | 234 to 236 °C | O=C(O)C1CCc2cn[nH]c2C1 (stereo unspecified)
131 | 85 to 87 °C | CNCC(O)COc1ccc(C(F)(F)F)cc1 (stereo unspecified)
132 | 233 to 235 °C | O=C(O)c1ccc(I)c(F)c1
133 | 154 to 156 °C | Nc1ccc(O)cc1C(=O)NCc1ccccc1
134 | 159 to 161 °C | COc1ccc(CCC(=O)Nc2ccccc2C(=O)O)cc1
135 | 178 to 180 °C | Cc1nc(S)n(C2CC2)c1C
136 | 243 to 245 °C | Cc1ccc2nc(-c3ccc(N=C=S)cc3)sc2c1
137 | 220 to 222 °C | Nc1cc(S(N)(=O)=O)ccc1S
138 | 122 to 124 °C | Cc1c(C(=O)O)cnn1-c1cccc(C(F)(F)F)c1
139 | 45 to 47 °C | c1cnn(CC2CCNCC2)c1
140 | 124 to 126 °C | O=C1c2ccc(S(=O)(=O)Cl)cc2CCC1Cl (stereo unspecified)
141 | 175 to 177 °C | Cn1cc(C=O)c(-c2ccc([N+](=O)[O-])cc2)n1
142 | 144 to 146 °C | CC(C)(C)OC(=O)NCc1ccc(C(=O)O)c(C2CC2)n1
143 | 79 to 81 °C | CN1C(=O)CCc2cc(Br)ccc21
144 | 92 to 94 °C | COc1cc(OC)c2c(Cl)ccnc2c1
145 | 162 to 164 °C | CN1C(=O)CC(C(=O)O)c2ccccc21 (stereo unspecified)
146 | 176 to 178 °C | COc1cc2c(cc1[N+](=O)[O-])C(=O)CCC2
